Source: patent US20200222400A1, “METHODS FOR THE TREATMENT OF NEUROLOGICAL DISORDERS” (Yumanity Therapeutics, Inc., priority 2019, published 2020)

What was measured:
yeast OLE1 = target: T1, yeast OLE1 (Saccharomyces cerevisiae, UniProt P21147); experiment: Growth of yeast surviving solely on yeast OLE1; type: cell-based; conditions: percent of DMSO-treated condition
T1 construct: expressed in transfected cells; host or cells: S. cerevisiae ole1Δ strain (W303 pdr1Δ pdr3Δ background), pRS316 plasmid, TDH3 promoter
T1 sequence (P21147 1-510): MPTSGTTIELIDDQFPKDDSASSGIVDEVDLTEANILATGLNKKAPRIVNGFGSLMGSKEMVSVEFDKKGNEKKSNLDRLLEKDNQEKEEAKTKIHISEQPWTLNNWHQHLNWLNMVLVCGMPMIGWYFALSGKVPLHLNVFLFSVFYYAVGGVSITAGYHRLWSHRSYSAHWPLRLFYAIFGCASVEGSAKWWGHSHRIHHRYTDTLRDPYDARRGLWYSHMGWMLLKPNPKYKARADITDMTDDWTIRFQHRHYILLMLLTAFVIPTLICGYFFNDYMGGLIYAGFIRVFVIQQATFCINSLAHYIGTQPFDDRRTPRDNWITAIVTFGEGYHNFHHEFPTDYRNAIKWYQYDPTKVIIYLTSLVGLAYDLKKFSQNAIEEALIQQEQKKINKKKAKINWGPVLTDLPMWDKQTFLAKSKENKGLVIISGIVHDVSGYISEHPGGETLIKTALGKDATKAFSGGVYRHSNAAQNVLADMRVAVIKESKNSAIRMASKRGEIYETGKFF
Excerpt: (§1) To generate yeast strains expressing SCD1 or SCD5 as the sole desaturase, the human SCD1 and SCD5 genes were cloned from cDNAs (Harvard PlasmID database Clone ID HsCD00340237 for SCD1 and HsCD00342695 for SCD5) into yeast plasmid pRS316 (ATCC 77145) between the yeast TDH3 promoter and the CYC1 terminator. The coding sequence of yeast OLE1 was also cloned into this plasmid). These clones were then transformed into the ole1Δ strain and plated on CSM-Ura media (CSM lacking uracil) with 2% glucose (w/v) and independent colonies were isolated and amplified.
(§2) All compound profiling experiments were performed using the same basic protocol. Different genetic backgrounds (e.g., gene deletions) or conditions (e.g., addition of oleic and palmitoleic acid) were replaced as indicated below.
(§3) Compound stocks (10 mM in 100% DMSO) were arrayed into 384 round well, v-bottom polypropylene plates and diluted according to indicated dilution factors. Compound administration was performed in two separate steps. First, 15 μL of CSM-Galactose (induces expression of toxic protein) was dispensed into clear 384 well assay plates using a MULTIDROP™ Combi reagent dispenser. The diluted compound stock plates were then applied to the assay plates using an automated workstation (Perkin Elmer JANUS™) outfitted with a 384 pin tool containing slotted pins that deliver 100 nL of compound. The cultures described above were then diluted to a 2× concentration (0.03 and 0.08 for alpha-synuclein and ApoE, final OD600 of 0.015 and 0.04) in CSM-Galactose. For wild-type and Ole1/SCD1/SCD5 plasmid-containing strains, the 2× cell density was 0.02. In all experiments, 15 μL culture was then dispensed into the pinned assay plate to achieve 30 μL of the 1×OD600 culture and a top drug concentration of […]. For 96-well assays (FIGS. 2A and 2B), compound dilutions in DMSO were generated in 96 well plates and 1 μL was manually pipetted into 96 well clear bottom assay plates.
(§4) For experiments using a plasmid-borne copy of Ole1, SCD1, or SCD5 (FIGS. 4B, 7, and 8), media lacking uracil (SX-Ura, where X is glucose, raffinose, or galactose), was used for all steps of the compound profiling protocol to ensure its maintenance throughout the assay.
(§5) After yeast delivery, assay plates were incubated under humidified conditions at 30° C. for 24 to 40 h. ApoE4 rescue experiments were stopped at 24 h, aSyn experiments at 40 h, Ole1 at 24 h, and SCD1/SCD5 at 40 h. The growth of yeast was monitored by reading the OD600 of each well using a microplate reader (Perkin Elmer EnVision™). For model rescue experiments, raw data were processed by background subtracting and calculating a fold-change relative to DMSO control [(EXP−0.035)/(DMSO−0.035)—where 0.035 is the OD600 contributed by an empty well containing 30 μL of media alone]. For growth inhibition of wild-type cells, raw data were processed by background subtracting and converting values to a percent of the nontreated condition for that strain [(EXP−0.035)/(DMSO−0.035)×100%].

human SCD1 = target: T2, human SCD1 (Homo sapiens, UniProt O00767); experiment: Growth of humanized yeast expressing human SCD1 as sole desaturase; type: cell-based, humanized yeastized yeastized yeastized yeast; conditions: for half-maximal inhibitory concentration (IC50), SCD1 humanized strain: yeast growth
T2 construct: host or cells: S. cerevisiae ole1Δ strain (W303 pdr1Δ pdr3Δ background), pRS316 plasmid, TDH3 promoter
T2 sequence (O00767 1-359): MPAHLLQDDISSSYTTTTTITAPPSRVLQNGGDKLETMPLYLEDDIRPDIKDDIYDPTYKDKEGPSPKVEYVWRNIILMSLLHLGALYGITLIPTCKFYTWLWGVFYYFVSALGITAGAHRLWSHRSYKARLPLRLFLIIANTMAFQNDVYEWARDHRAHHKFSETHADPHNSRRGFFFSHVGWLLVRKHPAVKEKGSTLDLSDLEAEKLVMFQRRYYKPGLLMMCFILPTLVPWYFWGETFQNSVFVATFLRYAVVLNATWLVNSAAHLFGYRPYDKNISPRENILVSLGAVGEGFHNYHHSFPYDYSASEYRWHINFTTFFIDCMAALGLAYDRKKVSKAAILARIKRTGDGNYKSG
Procedure: The coding sequence of yeast OLE1 was also cloned into this plasmid). These clones were then transformed into the ole1Δ strain and plated on CSM-Ura media (CSM lacking uracil) with 2% glucose (w/v) and independent colonies were isolated and amplified.
as §2
Compound administration was performed in two separate steps. First, 15 μL of CSM-Galactose (induces expression of toxic protein) was dispensed into clear 384 well assay plates using a MULTIDROP™ Combi reagent dispenser. […] The cultures described above were then diluted to a 2× concentration (0.03 and 0.08 for alpha-synuclein and ApoE, final OD600 of 0.015 and 0.04) in CSM-Galactose. For wild-type and Ole1/SCD1/SCD5 plasmid-containing strains, the 2× cell density was 0.02.
as §4
After yeast delivery, assay plates were incubated under humidified conditions at 30° C. for 24 to 40 h. ApoE4 rescue experiments were stopped at 24 h, aSyn experiments at 40 h, Ole1 at 24 h, and SCD1/SCD5 at 40 h. The growth of yeast was monitored by reading the OD600 of each well using a microplate reader (Perkin Elmer EnVision™).

human SCD5 = target: T3, human SCD5 (Homo sapiens, UniProt Q86SK9); experiment: Growth of humanized yeast expressing human SCD5 as sole desaturase; type: cell-based, Saccharomyces cerevisiae expressing Saccharomyces cerevisiae expressing Saccharomyces cerevisiae expressing Saccharomyces cerevisiae expressing Saccharomyces cerevisiae expressing human SCD5 SCD5 SCD5 SCD5 SCD5; conditions: for half-maximal inhibitory concentration (IC50), SCD5 humanized strain: yeast growth
T3 construct: host or cells: S. cerevisiae ole1Δ strain (W303 pdr1Δ pdr3Δ background), pRS316 plasmid, TDH3 promoter
T3 sequence (Q86SK9 1-330): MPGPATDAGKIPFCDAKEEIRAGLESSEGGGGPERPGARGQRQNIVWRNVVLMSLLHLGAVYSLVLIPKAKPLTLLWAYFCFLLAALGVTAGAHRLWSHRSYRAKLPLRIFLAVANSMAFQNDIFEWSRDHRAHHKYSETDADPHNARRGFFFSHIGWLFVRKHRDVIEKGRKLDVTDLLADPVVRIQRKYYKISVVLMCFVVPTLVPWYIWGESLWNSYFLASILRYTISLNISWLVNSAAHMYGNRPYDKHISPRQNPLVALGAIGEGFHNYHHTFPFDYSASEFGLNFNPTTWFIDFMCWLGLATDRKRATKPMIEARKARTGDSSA
Excerpt: as §1, §2, §3, §4, §5

[1] = system: cellular fatty acid desaturase activity (Ole1); experiment: Quantitative lipid profiling of yeast by LC-MS/MS; type: cell-based, Saccharomyces cerevisiae
Procedure: Overnight cultures of yeast strain W303 pdr1Δ pdr3Δ were diluted into CSM media with 2% (w/v) raffinose, OD600 0.25, and grown for 4 h before resuspending at an OD600 of 0.2 in CSM media with 2% (w/v) galactose and adding Compound 2 or DMSO at the indicated concentrations. Cells were grown for the indicated timepoints before centrifugation, washing once in PBS, and freezing pellets. Lipids were extracted from pellets by resuspending the pellets in 600 μL methanol, 300 μL water, and 400 μL chloroform, followed by cell lysis by vortexing with glass beads for 1 min. Samples were then centrifuged at 10,000×g for 10 min, and the bottom layer that formed (organic/lipids) was moved into a new tube and evaporated. Samples were then analyzed by LC/MS/MS using a Thermo Scientific Q Exactive™ Orbitrap™ coupled to a Dionex UltiMate® 3000 ultra-high performance liquid chromatography system, following the method described in Tafesse et al. PLoS Pathog. 11(10): e1005188, 2015.

Ole1/SCD = experiment: Yeast growth inhibition in control / wild-type condition (OD600); type: cell-based, Saccharomyces cerevisiae; conditions: ApoE4 strain, non-inducing conditions, raffinose
Excerpt: Strain GMYF was constructed from the ABC16/Green monster strain described in Suzuki et al. Nat. Methods 8(2):159-164, 2011. In this strain, YAP1 was deleted using a HIS3-MX6 cassette, and FLR1 was deleted using a NAT-MX6 cassette using standard methods. The knockout cassettes were PCR-amplified from plasmid templates (see, e.g., Bahler et al. Yeast 14(10):943-951, 1998; Longtine et al. Yeast 14(10):953-961, 1998) and transformed into yeast using lithium acetate-based transformation (Gietz et al. Methods Mol. Biol. 1205:1-12, 2014). The yap1::his3 deletion strain was selected on media lacking histidine and flr1::NAT on plates containing 100 μg/mL nourseothricin. All strains were confirmed by diagnostic PCR. Strain W303 pdr1Δ pdr3Δ was constructed from W303-1A (American Type Culture Collection (ATCC) 208352) by deleting PDR1 and PDR3 with kan-MX6 cassettes separately in MATa and MATα W303a isolates, mating, sporulating, and identifying the double deletion haploids by tetrad dissection and identification of non-parental ditype tetrads. Strain W-erg3 was derived from W303 pdr1Δ pdr3 by deleting SNQ2 with NAT-MX6, YAP1 with HIS3-MX6, and ERG3 with BleMX. […]
(§6) After yeast delivery, assay plates were incubated under humidified conditions at 30° C. for 24 to 40 h. […] The growth of yeast was monitored by reading the OD600 of each well using a microplate reader (Perkin Elmer EnVision™). […]

[2] = system: apolipoprotein E4 (ApoE4) Alzheimer's disease yeast model; experiment: ApoE4 yeast model rescue (growth, OD600); type: cell-based, Saccharomyces cerevisiae; conditions: 12-point dose
Excerpt: Strain ApoE-mga2Δ was generated by amplifying 1000 base pairs (bp) upstream and downstream of the MGA2 ORF in a strain in which MGA2 was deleted using a G418 (GENETICIN®) resistance cassette (kanMX) (Piotrowski et al. Proc. Natl. Acad. Sci. USA 112(12):E1490-1497, 2015) and transforming the resulting deletion cassette into the ApoE4 strain in the BY4741 (ATCC 201388) genetic background. The ApoE strain is described, for example, in International Patent Application Publication No. WO 2016/040794, which is incorporated herein by reference in its entirety.
as §2
Yeast were cultured using standard techniques in complete synthetic media (CSM) and yeast nitrogen base supplemented with 2% (w/v) carbon source (glucose, raffinose, or galactose) to regulate the expression of the toxic disease protein. An initial starter culture was inoculated in 3 mL CSM-Glucose media and incubated overnight in a 30° C. shaker incubator (225 rpm). […]
as §6

[3] = percent of DMSO-treated condition

| Structure (SMILES) | growth inhibition of yeast expressing OLE1 (yeast OLE1) | half-maximal inhibitory concentration (IC50), SCD1 humanized strain (human SCD1) | half-maximal inhibitory concentration (IC50), SCD5 humanized strain (human SCD5) | other results |
| --- | --- | --- | --- | --- |
| Cc1nnc(-c2ccc(N3CCC(Oc4ccccc4C(F)(F)F)CC3)nn2)s1 [MF-438] | resistant | low nanomolar | low nanomolar |  |
| O=C(O)Cn1nnc(-c2cc(N3CCC(Oc4cc(F)ccc4Br)CC3)no2)n1 [MK-8245] | resistant |  | low nanomolar |  |
| CNC(=O)c1cccc(NC(=O)N2CCC(Oc3ccccc3Cl)CC2)c1 [Compound A939572] | resistant | low nanomolar | low nanomolar |  |
| Cc1nn(C)c2cc(-c3noc(C4CCN(C(=O)CNC(=O)c5ccccc5)CC4)n3)ccc12 [Compound 2, N-(2-(4-(3-(1,3-dimethyl-1H-indazol-6-yl)-1,2,4-oxadiazol-5-yl)piperidin-1-yl)-2-oxoethyl)benzamide] |  |  |  | decrease in abundance of unsaturated lipid phosphatidylcholine 16:1, 18:1 ([1]; 8 h treatment, wild-type yeast): > 12 fold; increase in abundance of saturated lipid phosphatidylcholine 26:0 ([1]; 8 h treatment, wild-type yeast): > 300 fold; lipid desaturation ([1]; yeast cells): inhibited lipid desaturation |
| C[C@@H]1C[C@@H]([C@H](O)CC2CC(=O)NC(=O)C2)C(=O)[C@@H](C)C1 [Cyclohexamide, cycloheximide] | inhibited growth of all three strains with the same potency |  |  | growth inhibition of SCD1-expressing yeast (human SCD1; [3]): inhibited growth of all three strains with the same potency; growth inhibition of SCD5-expressing yeast (human SCD5; [3]): inhibited growth of all three strains with the same potency |
| COc1ccc(-c2noc(C3CCN(C(=O)CNC(=O)c4ccccc4)CC3)n2)cc1OC [Compound 1, N-(2-(4-(3-(3,4-dimethoxyphenyl)-1,2,4-oxadiazol-5-yl)piperidin-1-yl)-2-oxoethyl)benzamide] |  |  |  | growth in control (non-inducing) condition (Ole1/SCD): growth decreased at this same concentration; rescue dose-response in ApoE4 model (OD600) [2]: bell-shaped dose-response curve |
